ChEMBL document CHEMBL3877294, “Discovery of Ruzasvir (MK-8408): A Potent, Pan-Genotype HCV NS5A Inhibitor with Optimized Activity against Common Resistance-Associated Polymorphisms” (J Med Chem, 2017)
Positions count from the first letter of the chain named.

Key:
[1] = Selectivity ratio for EC90 for HCV genotype-2b NS5A harboring methionine at position 31 to EC90 for HCV genotype-1a NS5A
[2] = Oral bioavailability in rat at 10 mg/kg measured after 24 hrs by LC/MS method; type: ADME, organism-based; settings: in vivo
Huh-7 [3] = test: Inhibition of HCV genotype-2b NS5A harboring methionine at position 31 infected in human HuH7 cells by luciferase reporter gene assay; type: cell-based; settings: Hepatitis C virus subtype 2b
Huh-7 [4] = test: Inhibition of HCV genotype-4a NS5A infected in human HuH7 cells by luciferase reporter gene assay; type: cell-based; settings: Hepatitis C virus subtype 4a
Huh-7 [5] = test: Inhibition of HCV genotype-3a NS5A infected in human HuH7 cells by luciferase reporter gene assay; type: cell-based; settings: Hepatitis C virus subtype 3a
[6] = test system: Hepatitis C virus subtype 1a; test: Selectivity ratio for EC90 for HCV genotype-1a NS5A Y93H mutant to EC90 for HCV genotype-1a NS5A
[7] = AUC (0 to t) in dog at 5 mg/kg, po measured after 24 hrs by LC/MS method; type: ADME, organism-based, Canis lupus familiaris; set-up: time < 24 hr, dose 5 mg/kg, route oral; settings: in vivo
Huh-7 [8] = test: Inhibition of HCV genotype-1a NS5A infected in human HuH7 cells by luciferase reporter gene assay; type: cell-based; settings: Hepatitis C virus subtype 1a
[9] = Selectivity ratio for EC90 for HCV genotype-3a NS5A to EC90 for HCV genotype-1a NS5A
[10] = Selectivity ratio for EC90 for HCV genotype-4a NS5A to EC90 for HCV genotype-1a NS5A
[11] = test system: T1, Nonstructural protein 5A (Hepatitis C virus), Q5L478 [Y93H]; test: Inhibition of HCV genotype-1a NS5A Y93H mutant infected in human HuH7 cells by luciferase reporter gene assay; type: cell-based; settings: Hepatitis C virus subtype 1a; Huh-7
T1 sequence (whole entry): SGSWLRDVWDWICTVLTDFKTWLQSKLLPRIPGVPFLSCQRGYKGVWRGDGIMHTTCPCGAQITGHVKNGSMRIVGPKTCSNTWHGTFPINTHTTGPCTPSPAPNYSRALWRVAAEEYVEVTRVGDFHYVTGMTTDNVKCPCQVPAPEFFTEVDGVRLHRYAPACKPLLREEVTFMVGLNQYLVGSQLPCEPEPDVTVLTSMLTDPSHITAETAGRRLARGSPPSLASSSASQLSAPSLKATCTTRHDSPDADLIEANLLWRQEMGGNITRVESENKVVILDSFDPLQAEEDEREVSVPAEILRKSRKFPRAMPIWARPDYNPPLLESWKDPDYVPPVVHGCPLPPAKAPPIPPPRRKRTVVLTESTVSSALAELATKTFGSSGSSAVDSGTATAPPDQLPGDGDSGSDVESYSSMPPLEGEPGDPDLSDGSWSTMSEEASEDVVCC

[12] = test system: Hepatitis C virus subtype 1a; test: Selectivity ratio for EC90 for HCV genotype-1a NS5A L31V mutant to EC90 for HCV genotype-1a NS5A
[13] = Plasma clearance in dog at 1 mg/kg, iv measured after 24 hrs by LC/MS method; type: ADME, organism-based, Canis lupus familiaris
[14] = Half life in rat at 2 mg/kg, iv by LC/MS method; type: ADME, organism-based; settings: in vivo
[15] = Oral bioavailability in dog at 5 mg/kg measured after 24 hrs by LC/MS method; type: ADME, organism-based, Canis lupus familiaris; settings: in vivo
[16] = Plasma clearance in rat at 2 mg/kg, iv measured after 24 hrs by LC/MS method; type: ADME, organism-based
[17] = Half life in dog at 1 mg/kg, iv by LC/MS method; type: ADME, organism-based, Canis lupus familiaris; settings: in vivo
[18] = test system: Nonstructural protein 5A (Hepatitis C virus), Q5L478 [UNDEFINED MUTATION]; test: Inhibition of HCV genotype-1a NS5A L31V mutant infected in human HuH7 cells by luciferase reporter gene assay; type: cell-based; settings: Hepatitis C virus subtype 1a; Huh-7
[19] = Drug uptake in rat at 10 mg/kg, po measured at 24 hrs post dose by LC/MS method; type: ADME, organism-based; settings: in vivo, read-out: Drug uptake
[20] = AUC in rat at 10 mg/kg, po measured after 24 hrs by LC/MS method; type: ADME, organism-based; set-up: time < 24 hr, dose 10 mg/kg, route oral; settings: in vivo
[21] = Drug uptake in dog at 5 mg/kg, po measured at 24 hrs post dose by LC/MS method; type: ADME, organism-based, Canis lupus familiaris; settings: in vivo, read-out: Drug uptake
[22] = AUC (0 to t) in rat at 10 mg/kg, po measured after 24 hrs by LC/MS method; type: ADME, organism-based; set-up: dose 10 mg/kg, time < 24 hr, route oral; settings: in vivo
Huh-7 [23] = test: Inhibition of HCV genotype-1b NS5A infected in human HuH7 cells by luciferase reporter gene assay; type: cell-based; settings: Hepatitis C virus subtype 1b
Huh-7 [24] = test: Inhibition of HCV genotype-6d NS5A infected in human HuH7 cells by luciferase reporter gene assay; type: cell-based; settings: Hepatitis C virus subtype 6d
[25] = test system: T2, Nonstructural protein 5A (Hepatitis C virus), Q5L478 [Y93C]; test: Inhibition of HCV genotype-1a NS5A Y93C mutant infected in human HuH7 cells by luciferase reporter gene assay; type: cell-based; settings: Hepatitis C virus subtype 1a; Huh-7
T2 sequence (whole entry): T1 sequence (whole entry) with H93C

Huh-7 [26] = test: Inhibition of HCV genotype-2a NS5A infected in human HuH7 cells by luciferase reporter gene assay; type: cell-based; settings: Hepatitis C virus subtype 2a
[27] = test system: T1, Nonstructural protein 5A (Hepatitis C virus), Q5L478 [Y93H]; test: Inhibition of HCV genotype-1b NS5A Y93H mutant infected in human HuH7 cells by luciferase reporter gene assay; type: cell-based; settings: Hepatitis C virus subtype 1b; Huh-7
Huh-7 [28] = test: Inhibition of HCV genotype-6 NS5A infected in human HuH7 cells by luciferase reporter gene assay; type: cell-based; settings: Hepatitis C virus genotype 6
Huh-7 [29] = test: Inhibition of HCV genotype-5a NS5A infected in human HuH7 cells by luciferase reporter gene assay; type: cell-based; settings: Hepatitis C virus subtype 5a
[30] = test system: Nonstructural protein 5A (Hepatitis C virus), Q5L478 [UNDEFINED MUTATION]; test: Inhibition of HCV genotype-1a NS5A Q30R mutant infected in human HuH7 cells by luciferase reporter gene assay; type: cell-based; settings: Hepatitis C virus subtype 1a; Huh-7

## CCc1ccc([C@@H]2Oc3cc(-c4cnc([C@@H]5CCCN5C(=O)[C@@H](NC(=O)OC)C(C)C)[nH]4)cc(F)c3-c3cc4cc(-c5cnc([C@@H]6CCCN6C(=O)[C@@H](NC(=O)OC)C(C)C)[nH]5)ccc4n32)s1
[1]
  Selectivity ratio: 300
[2]
  bioavailability: 3%
Huh-7 [3]
  EC90: 0.9 nM
Huh-7 [4]
  EC90: 0.003 nM
Huh-7 [5]
  EC90: 0.002 nM
[6]
  Selectivity ratio: 20
[7]
  AUC(0-t) at 24 h: 13.8 µM·h
Huh-7 [8]
  EC90: 0.003 nM
[9]
  Selectivity ratio: 1
[10]
  Selectivity ratio: 1
[11]
  EC90: 0.06 nM
[12]
  Selectivity ratio: 22
[13]
  clearance: 1.7 mL/min/kg
[14]
  half-life: 6.4 h
[15]
  bioavailability: 21%
[16]
  clearance: 8 mL/min/kg
[17]
  half-life: 15 h
[18]
  EC90: 0.067 nM
[19]
  concentration at 24 h: 17 nM
[20]
  AUC at 24 h: 0.7 µM·h
[21]
  concentration at 24 h: 172 nM

## CCCc1ncc(C2Oc3cc(-c4cnc([C@@H]5CCCN5C(=O)[C@@H](NC(=O)OC)C(C)C)[nH]4)cc(F)c3-c3cc4cc(-c5cnc([C@@H]6CCCN6C(=O)[C@@H](NC(=O)OC)C(C)C)[nH]5)ccc4n32)s1 (stereo partly specified)
[1]
  Selectivity ratio: 140
[2]
  bioavailability: 7%
Huh-7 [3]
  EC90: 0.14 nM
Huh-7 [4]
  EC90: 0.01 nM
Huh-7 [5]
  EC90: 0.002 nM
[6]
  Selectivity ratio: 88
[7]
  AUC(0-t) at 24 h: 11 µM·h
Huh-7 [8]
  EC90: 0.001 nM
[9]
  Selectivity ratio: 2
[10]
  Selectivity ratio: 10
[11]
  EC90: 0.088 nM
[12]
  Selectivity ratio: 20
[13]
  clearance: 1.8 mL/min/kg
[14]
  half-life: 4.3 h
[15]
  bioavailability: 23%
[16]
  clearance: 16 mL/min/kg
[17]
  half-life: 11.5 h
[18]
  EC90: 0.02 nM
[19]
  concentration at 24 h: 4 nM
[20]
  AUC at 24 h: 0.8 µM·h
[21]
  concentration at 24 h: 76.7 nM

## COC(=O)N[C@H](C(=O)N1CCC[C@H]1c1ncc(-c2cc(F)c3c(c2)OC(c2cnc(C4CC4)s2)n2c-3cc3cc(-c4cnc([C@@H]5C[C@H]6C[C@H]6N5C(=O)[C@@H](NC(=O)OC)C(C)C)[nH]4)ccc32)[nH]1)C(C)C (stereo partly specified)
[2]
  bioavailability: 4%
Huh-7 [3]
  EC90: 0.076 nM
Huh-7 [4]
  EC90: 0.006 nM
Huh-7 [5]
  EC90: 0.011 nM
Huh-7 [8]
  EC90: 0.006 nM
[11]
  EC90: 0.021 nM
[22]
  AUC(0-t) at 24 h: 0.52 µM·h
[14]
  half-life: 3.9 h
[16]
  clearance: 12 mL/min/kg
[18]
  EC90: 0.007 nM
[19]
  concentration at 24 h: 1.9 nM

## COC(=O)N[C@H](C(=O)N1CCC[C@H]1c1ncc(-c2cc(F)c3c(c2)OC(c2ccc(C4CC4)s2)n2c-3cc3cc(-c4cnc([C@@H]5CCCN5C(=O)[C@@H](NC(=O)OC)C(C)C)[nH]4)ccc32)[nH]1)C(C)C (stereo partly specified)
[1]
  Selectivity ratio: 53 to 200
[2]
  bioavailability: 5%
Huh-7 [3]
  EC90: 0.16 nM
Huh-7 [4]
  EC90: 0.009 nM
Huh-7 [5]
  EC90: 0.007 nM
[6]
  Selectivity ratio: 37
[7]
  AUC(0-t) at 24 h: 10.6 µM·h
Huh-7 [8]
  EC90: 0.003 nM
[9]
  Selectivity ratio: 2
[10]
  Selectivity ratio: 3
[11]
  EC90: 0.11 nM
[13]
  clearance: 1.5 mL/min/kg
[14]
  half-life: 7 h
[15]
  bioavailability: 11%
[16]
  clearance: 11 mL/min/kg
[17]
  half-life: 10 h
[18]
  EC90: 0.02 nM
[19]
  concentration at 24 h: 16 nM
[20]
  AUC at 24 h: 1.1 µM·h
[21]
  concentration at 24 h: 134 nM

## COC(=O)N[C@H](C(=O)N1CCC[C@H]1c1ncc(-c2cc(F)c3c(c2)O[C@@H](c2cnc(C4CC4)s2)n2c-3cc3cc(-c4cnc([C@@H]5CCCN5C(=O)[C@@H](NC(=O)OC)C(C)C)[nH]4)ccc32)[nH]1)C(C)C [RUZASVIR]
[1]
  Selectivity ratio: 12
[2]
  bioavailability: 4%
Huh-7 [3]
  EC90: 0.036 nM
Huh-7 [4]
  EC90: 0.007 to 0.011 nM
Huh-7 [5]
  EC90: 0.006 to 0.007 nM
[6]
  Selectivity ratio: 22
Huh-7 [23]
  EC90: 0.003 nM
[7]
  AUC(0-t) at 24 h: 12.9 µM·h
Huh-7 [8]
  EC90: 0.003 nM
[9]
  Selectivity ratio: 2
[10]
  Selectivity ratio: 2
[11]
  EC90: 0.067 nM
Huh-7 [24]
  EC90: 0.027 nM
[12]
  Selectivity ratio: 5
[25]
  EC90: 0.002 nM
Huh-7 [26]
  EC90: 0.001 nM
[13]
  clearance: 1.6 mL/min/kg
[14]
  half-life: 4.7 h
[15]
  bioavailability: 22%
[16]
  clearance: 13 mL/min/kg
[17]
  half-life: 4 h
[18]
  EC90: 0.016 nM
[19]
  concentration at 24 h: 3 nM
[20]
  AUC at 24 h: 0.4 µM·h
[27]
  EC90: 0.009 nM
Huh-7 [28]
  EC90: 0.007 nM
Huh-7 [29]
  EC90: 0.001 nM
[21]
  concentration at 24 h: 43 nM
[30]
  EC90: 0.011 nM

## COC(=O)N[C@H](C(=O)N1CCC[C@H]1c1ncc(-c2cc(F)c3c(c2)OC(c2cccs2)n2c-3cc3cc(-c4cnc([C@@H]5CCCN5C(=O)[C@@H](NC(=O)OC)C(C)C)[nH]4)ccc32)[nH]1)C(C)C (mixture of isomers)
[1]
  Selectivity ratio: 267
Huh-7 [3]
  EC90: 8 to 8.2 nM
Huh-7 [5]
  EC90: 0.016 nM
[6]
  Selectivity ratio: 100
Huh-7 [8]
  EC90: 0.03 nM
[11]
  EC90: 3 to 3.4 nM
[18]
  EC90: 0.76 nM

## COC(=O)N[C@H](C(=O)N1CCC[C@H]1c1nc(-c2ccc3c(c2)O[C@@H](c2ccccc2)n2c-3cc3cc(-c4c[nH]c([C@@H]5CCCN5C(=O)[C@@H](NC(=O)OC)C(C)C)n4)ccc32)c[nH]1)C(C)C
Huh-7 [3]
  EC90: 11 nM
Huh-7 [4]
  EC90: 0.016 nM
Huh-7 [5]
  EC90: 0.12 nM
Huh-7 [23]
  EC90: 0.006 nM
Huh-7 [8]
  EC90: 0.006 nM
Huh-7 [24]
  EC90: 0.008 nM
[25]
  EC90: 1.1 nM
Huh-7 [26]
  EC90: 0.019 nM
[27]
  EC90: 0.89 nM
Huh-7 [28]
  EC90: 0.017 nM
Huh-7 [29]
  EC90: 0.002 nM
[30]
  EC90: 2.5 nM
